What was measured:
[1] = biological target: T1, BrlR mutant D35A (Pseudomonas aeruginosa, UniProt Q9HUT5, D35A); test: FP binding assay, BrlR D35A
T1 construct: His6-SUMO (N, cleaved yes); made in house; host or cells: E. coli BL21 DE3
Experimental: (§1) F-c-di-GMP and F-c-di-AMP both contain a fluorophore at one of the 2′-ribose hydroxyls of c-di-GMP and c-di-AMP, respectively (Fig. 2f). To measure the binding of c-di-GMP and c-di-AMP to BrlR variants, 1 nM F-c-di-GMP or F-c-di-AMP was incubated with increasing amounts of indicated BrlR WT, BrlR mutation, or BrlR-C in reaction buffer (25 mM HEPES, 100 mM NaCl, pH 7.5) at 25 °C for 20 min. 1 nM fluorescein was incubated with BrlR WT in the same reaction buffer at 25 °C. FP measurements were conducted on a Synergy 4 Microplate Reader (BioTek) at 25 °C. All experiments were performed in triplicate. The curves were fitted to deduce binding affinities by GraphPad Prism 5.
(§2) BrlR–c-di-GMPs interactions in two separate c-di-GMP binding sites
(§3) In the first binding site, c-di-GMP is half accommodated by the antiparallel β-sheet and two residues (M1 and D35). In detail, the backbone amide protons of the first M1 residue form a hydrogen bond (H-bond) with the phosphate oxygen atom of c-di-GMP, and the side chain of R31 forms two H-bonds with the Gua1 base. The residue D35 also forms an H-bond with the Gua1 base. The aromatic ring of Y40 interacts with the Gua1 base through a hydrophobic π-π interaction. In addition, the hydroxyl group of the Y270 side chain from another subunit interacts with the phosphate 2 of c-di-GMP via an H-bond (Fig. 2d). […]

[2] = test system: brlR promoter activity (C2E mut3); test: β-galactosidase assay, C2E mut3; format: cell-based, Pseudomonas aeruginosa
Experimental: (§4) We also performed β-galactosidase activity assays using a PbrlR-brlR-lacZ reporter construct to investigate the transcriptional function of BrlR mutants in vivo. […] To confirm the effect of c-di-GMP in P. aeruginosa, we carried out real-time quantitative PCR analyses. Following a previous report, we introduced the diguanylate cyclase PA4843 into a WT P. aeruginosa strain carrying either pHERD20T-empty or pHERD20T-PA4843. The transcription level of brlR was analyzed using the brlR 5 F and brlR 3 R primers (Supplementary Table 1). The transcriptional level of brlR in pHERD20T-PA4843 strain is 4.5 ± 1.3-fold higher than that in the pHERD20T-empty strain (Fig. 4h).
(§5) β-galactosidase activity was assayed with P. aeruginosa PA01 ΔbrlR strain carrying plasmid pME6522-borne transcriptional lacZ fusions. P. aeruginosa carrying the empty vector was used as the […]. The reporter plasmids are derivatives of the pME6522 plasmid in which multiple cloning sites were inserted before the LacZ with the promoter and coding regions of brlR with diverse mutations. These reporter plasmids were transformed into the reporter strain. Overnight cultures were diluted 20-fold with LB medium supplemented with appropriate antibiotics. […]

[3] = biological target: T2, BrlR mutant R67A (Pseudomonas aeruginosa, UniProt Q9HUT5, R67A); test: FP binding assay, BrlR R67A
T2 construct: His6-SUMO (N, cleaved yes); made in house; host or cells: E. coli BL21 DE3
T2 sequence (Q9HUT5 whole entry R67A): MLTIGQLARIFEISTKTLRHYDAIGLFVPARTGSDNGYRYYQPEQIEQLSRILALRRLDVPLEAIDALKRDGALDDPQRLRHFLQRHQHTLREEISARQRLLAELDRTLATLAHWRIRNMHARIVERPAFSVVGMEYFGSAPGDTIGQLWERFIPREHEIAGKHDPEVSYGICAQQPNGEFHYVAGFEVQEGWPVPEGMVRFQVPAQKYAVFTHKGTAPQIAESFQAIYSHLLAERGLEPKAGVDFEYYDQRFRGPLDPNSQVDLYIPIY
Experimental: as §1, §2, §3

[4] = biological target: T3, C2E mut2 DNA binding (Pseudomonas aeruginosa, UniProt Q9HUT5, R67A/R86A); test: EMSA, C2E mut2 with PbrlR DNA; format: biochemical
T3 construct: His6-SUMO (N, cleaved yes); made in house; host or cells: E. coli BL21 DE3
T3 sequence (Q9HUT5 whole entry R67A/R86A): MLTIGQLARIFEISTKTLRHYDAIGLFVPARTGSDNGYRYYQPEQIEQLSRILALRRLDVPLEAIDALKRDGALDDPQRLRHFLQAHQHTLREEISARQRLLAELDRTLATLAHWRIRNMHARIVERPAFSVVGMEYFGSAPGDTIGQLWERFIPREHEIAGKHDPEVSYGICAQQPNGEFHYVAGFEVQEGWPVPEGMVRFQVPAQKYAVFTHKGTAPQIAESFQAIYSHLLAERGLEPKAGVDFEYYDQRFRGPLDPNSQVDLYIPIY
Experimental: A 6-carboxy-fluorescein (FAM)-labeled 36-bp brlR promoter DNA (PbrlR) or 80-bp mexA/mexE promoter DNA (PmexA/PmexE) probes (~0.375 pmol), BrlR protein and varying amounts of inducers were incubated in binding buffer (10 mM Tris HCl [pH 7.4], 50 mM KCl, 1 mM DTT, […] and 5 ng/mL poly [dI-dC]) for 60 min at 25 °C. Finally, glycerol was added to a concentration of 6.5%. The samples were subjected to a 5% polyacrylamide gel electrophoresis and run in 0.5 × Tris-borate-EDTA buffer at 80 V for 1 h at room temperature. Imaging and data analyses were performed using a Typhoon Scanner (GE Healthcare) and Imagequant software. The probes used are listed in Supplementary Table 1.

[5] = test system: brlR promoter activity (C2E mut1); test: β-galactosidase assay, C2E mut1; format: cell-based, Pseudomonas aeruginosa
Experimental: as §4, §5

[6] = biological target: T4, BrlR (Pseudomonas aeruginosa, UniProt Q9HUT5); test: FP competition experiment, wild-type BrlR; format: binding; conditions: 320 μM BrlR, 1 nM F-c-di-GMP, 760 μM c-di-GMP added
T4 construct: His6-SUMO (N, cleaved yes); made in house; host or cells: E. coli BL21 DE3
T4 sequence (Q9HUT5 whole entry): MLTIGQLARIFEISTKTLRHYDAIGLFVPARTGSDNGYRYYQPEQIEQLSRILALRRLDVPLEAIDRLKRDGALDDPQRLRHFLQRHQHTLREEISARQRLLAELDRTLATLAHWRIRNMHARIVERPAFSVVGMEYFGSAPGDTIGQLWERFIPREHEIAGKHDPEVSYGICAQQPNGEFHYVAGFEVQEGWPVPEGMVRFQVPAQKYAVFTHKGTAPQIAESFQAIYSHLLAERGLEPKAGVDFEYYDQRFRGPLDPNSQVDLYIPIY
Experimental: Supplementary Figure 4: Fluorescence polarization competition experiment. Wt BrlR was added to a final concentration of 320 μM in the reaction buffer containing 1 nM F-c-di-GMP, and the binding […]
curve was recorded. […] After the addition of
760 μM c-di-GMP (indicated with an arrow in the figure), an apparent competition with the fluoresceinated c-di-GMP could be observed by the remarkable decrease in millipolarization units.
(1 picture or pasted object on this page, not shown here)

[7] = test system: brlR promoter activity (wild-type BrlR); test: β-galactosidase assay, PbrlR-brlR-lacZ reporter, wild-type BrlR; format: cell-based, Pseudomonas aeruginosa; conditions: ΔbrlR strain, pHERD20T-PA4843 vs pHERD20T
Experimental: as §4, §5

T1 sequence (Q9HUT5 whole entry D35A): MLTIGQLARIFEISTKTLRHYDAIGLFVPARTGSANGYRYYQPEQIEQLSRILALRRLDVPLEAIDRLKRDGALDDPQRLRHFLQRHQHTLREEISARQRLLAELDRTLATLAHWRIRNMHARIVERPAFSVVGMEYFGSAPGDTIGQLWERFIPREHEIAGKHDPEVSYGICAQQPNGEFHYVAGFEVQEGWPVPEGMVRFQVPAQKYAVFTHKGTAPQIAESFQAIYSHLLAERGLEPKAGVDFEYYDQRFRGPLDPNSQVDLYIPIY

With `Nc1nc2c(ncn2[C@@H]2O[C@@H]3COP(=O)(O)O[C@H]4[C@@H](O)[C@H](n5cnc6c(=O)[nH]c(N)nc65)O[C@@H]4COP(=O)(O)O[C@H]3[C@H]2O)c(=O)[nH]1` [c-di-GMP, cyclic diguanylate monophosphate] the Kd [1] was 17.5 ± 0.9 µM, the “response of β-galactosidase activity to increase in c-di-GMP concentration” value [2] was “no response” and the Kd [3] was 16.4 ± 1 µM. The “BrlR-DNA complex in the presence vs absence of c-di-GMP” value [4] was 1.9 fold, the “increase at high vs low c-di-GMP concentration (β-galactosidase activity)” value [5] was 2.0 fold and the “competition with F-c-di-GMP binding to BrlR” value [6] was “outcompeted specifically”. The “increase at high vs low c-di-GMP concentration (β-galactosidase activity)” value [7] was 3.3 fold.

Reference: PMC6028453, “BrlR from Pseudomonas aeruginosa is a receptor for both cyclic di-GMP and pyocyanin” (Nature Communications, 2018)
